Experimental findings from ChEMBL document CHEMBL5463723, “Data for DCP probe BIBO3304” (2023) are described below.

The structures appear in SMILES notation.

Assay [1] concerns the target T1, Neuropeptide Y receptor type 2 (Homo sapiens, UniProt P49146).
T1 sequence (P49146 whole entry): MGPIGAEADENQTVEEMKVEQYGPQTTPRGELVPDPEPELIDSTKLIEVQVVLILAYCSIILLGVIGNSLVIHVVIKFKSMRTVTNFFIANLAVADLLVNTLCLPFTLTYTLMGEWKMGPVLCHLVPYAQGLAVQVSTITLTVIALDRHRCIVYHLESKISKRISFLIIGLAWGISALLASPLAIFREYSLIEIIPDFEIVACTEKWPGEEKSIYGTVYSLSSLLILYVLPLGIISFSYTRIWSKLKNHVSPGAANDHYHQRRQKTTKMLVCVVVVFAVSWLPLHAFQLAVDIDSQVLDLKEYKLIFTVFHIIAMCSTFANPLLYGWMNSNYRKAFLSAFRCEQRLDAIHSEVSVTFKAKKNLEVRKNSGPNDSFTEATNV
As to the kind of experiment: Radioligand binding assay (NPY2R, SMS-KAN cells). Format: cell-based.

Assay [2] addresses Neuropeptide Y receptor type 5 (Rattus norvegicus, UniProt Q63634). Briefly: Radioligand binding assay (rat NPY5R, CHO cells). It is filed as cell-based.
For assay [3], the target named is T1, Neuropeptide Y receptor type 2. As to the kind of experiment: Radioligand binding assay (NPY2R, BHK). It is filed as cell-based, BHK-21.
In assay [4] the target is Neuropeptide Y receptor type 4 (Homo sapiens, UniProt P50391). Briefly: Radioligand binding assay (human NPY4R, CHO cells). Format: cell-based.
In assay [5] the target is Neuropeptide Y receptor type 4 (Rattus norvegicus, UniProt Q63447). As to the kind of experiment: Radioligand binding assay (rat NPY4R, CHO cells). Format: cell-based.
In assay [6] the target is Neuropeptide Y receptor type 5 (Homo sapiens, UniProt Q15761). As to the kind of experiment: Radioligand binding assay (human NPY5R, HEK293). It is filed as cell-based.
Neuropeptide Y receptor type 5 (Homo sapiens, UniProt Q15761), sequence (Q15761 whole entry): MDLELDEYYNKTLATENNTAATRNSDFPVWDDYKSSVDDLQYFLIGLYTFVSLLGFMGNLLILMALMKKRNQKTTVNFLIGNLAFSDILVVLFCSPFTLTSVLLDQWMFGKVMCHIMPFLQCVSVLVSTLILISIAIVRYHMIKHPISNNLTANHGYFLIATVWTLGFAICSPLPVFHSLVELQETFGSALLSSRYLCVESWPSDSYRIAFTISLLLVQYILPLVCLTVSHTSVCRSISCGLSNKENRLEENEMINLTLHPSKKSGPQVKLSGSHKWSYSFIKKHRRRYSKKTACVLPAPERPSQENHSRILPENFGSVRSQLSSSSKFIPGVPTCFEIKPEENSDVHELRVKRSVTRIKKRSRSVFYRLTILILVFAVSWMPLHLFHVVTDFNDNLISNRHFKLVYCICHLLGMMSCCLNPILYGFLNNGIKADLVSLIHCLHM

Neuropeptide Y receptor type 5 (Rattus norvegicus, UniProt Q63634), sequence (Q63634 whole entry): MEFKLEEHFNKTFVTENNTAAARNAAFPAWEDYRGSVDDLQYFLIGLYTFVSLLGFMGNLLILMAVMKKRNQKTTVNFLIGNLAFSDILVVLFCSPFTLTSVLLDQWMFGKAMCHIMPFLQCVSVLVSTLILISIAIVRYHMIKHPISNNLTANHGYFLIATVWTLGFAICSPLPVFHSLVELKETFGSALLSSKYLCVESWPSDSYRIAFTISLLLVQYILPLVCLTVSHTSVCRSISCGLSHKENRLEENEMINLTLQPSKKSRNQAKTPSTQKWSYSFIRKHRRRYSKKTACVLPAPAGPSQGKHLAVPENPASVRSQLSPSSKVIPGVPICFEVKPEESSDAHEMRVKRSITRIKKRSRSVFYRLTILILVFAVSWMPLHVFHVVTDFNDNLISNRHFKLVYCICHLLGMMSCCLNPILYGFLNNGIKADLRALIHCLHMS
Neuropeptide Y receptor type 4 (Homo sapiens, UniProt P50391), sequence (P50391 whole entry): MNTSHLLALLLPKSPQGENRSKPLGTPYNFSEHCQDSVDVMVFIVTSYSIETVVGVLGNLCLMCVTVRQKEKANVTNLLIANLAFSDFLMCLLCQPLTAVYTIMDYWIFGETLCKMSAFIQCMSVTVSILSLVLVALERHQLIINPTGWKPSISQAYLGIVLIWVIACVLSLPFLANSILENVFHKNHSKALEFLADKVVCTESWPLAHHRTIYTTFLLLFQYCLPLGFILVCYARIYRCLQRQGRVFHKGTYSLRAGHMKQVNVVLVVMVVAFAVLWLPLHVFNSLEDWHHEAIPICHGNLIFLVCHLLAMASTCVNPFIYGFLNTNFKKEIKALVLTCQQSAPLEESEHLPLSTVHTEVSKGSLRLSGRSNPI
Neuropeptide Y receptor type 4 (Rattus norvegicus, UniProt Q63447), sequence (Q63447 whole entry): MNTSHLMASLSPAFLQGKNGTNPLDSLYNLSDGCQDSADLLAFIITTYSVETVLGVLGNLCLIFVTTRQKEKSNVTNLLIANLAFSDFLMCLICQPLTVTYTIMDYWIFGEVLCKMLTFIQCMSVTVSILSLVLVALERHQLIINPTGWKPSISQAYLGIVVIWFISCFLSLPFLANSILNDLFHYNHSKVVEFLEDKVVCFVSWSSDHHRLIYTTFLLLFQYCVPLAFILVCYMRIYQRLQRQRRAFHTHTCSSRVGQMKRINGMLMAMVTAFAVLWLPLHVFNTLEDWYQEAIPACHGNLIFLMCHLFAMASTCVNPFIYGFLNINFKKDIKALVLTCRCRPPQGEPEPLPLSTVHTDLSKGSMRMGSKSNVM

As for `N=C(N)NCCC[C@H](NC(=O)C(c1ccccc1)c1ccccc1)C(=O)NCc1ccc(CNC(N)=O)cc1`, the IC50 (commonly the concentration that gives 50% inhibition) is on record as > 10 µM (not active) in assay [1]; 23 µM (not active) in assay [2]; > 10 µM (not active) in assay [3]; 24 µM (not active) in assay [4]; > 10 µM (not active) in assay [5]; 28 µM (not active) in assay [6].
